Patent publication US20220073521A1, “PYRIMIDINE AND FIVE-MEMBERED NITROGEN HETEROCYCLE DERIVATIVE, PREPARATION METHOD THEREFOR, AND MEDICAL USES THEREOF” (Tuojie Biotech (Shanghai) Co., Ltd., priority 2018, published 2022)

Columns and labels:
[1] = biological target: T1, SHP2 wild-type phosphatase (recombinantly expressed full-length SHP2, aa 1-593) (Homo sapiens, UniProt Q06124); experiment: In vitro activity on SHP2 wild-type phosphatase (DiFMUP fluorescence); conditions: wild-type full-length SHP2, activated polypeptide IRS1 0.5 nM, DiFMUP 30 μM;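 note: enzyme preincubated at room temperature, then DiFMUP reaction run at room temperature and halted with SDS, potency derived from a logistic curve fit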
T1 sequence (Q06124 1-593): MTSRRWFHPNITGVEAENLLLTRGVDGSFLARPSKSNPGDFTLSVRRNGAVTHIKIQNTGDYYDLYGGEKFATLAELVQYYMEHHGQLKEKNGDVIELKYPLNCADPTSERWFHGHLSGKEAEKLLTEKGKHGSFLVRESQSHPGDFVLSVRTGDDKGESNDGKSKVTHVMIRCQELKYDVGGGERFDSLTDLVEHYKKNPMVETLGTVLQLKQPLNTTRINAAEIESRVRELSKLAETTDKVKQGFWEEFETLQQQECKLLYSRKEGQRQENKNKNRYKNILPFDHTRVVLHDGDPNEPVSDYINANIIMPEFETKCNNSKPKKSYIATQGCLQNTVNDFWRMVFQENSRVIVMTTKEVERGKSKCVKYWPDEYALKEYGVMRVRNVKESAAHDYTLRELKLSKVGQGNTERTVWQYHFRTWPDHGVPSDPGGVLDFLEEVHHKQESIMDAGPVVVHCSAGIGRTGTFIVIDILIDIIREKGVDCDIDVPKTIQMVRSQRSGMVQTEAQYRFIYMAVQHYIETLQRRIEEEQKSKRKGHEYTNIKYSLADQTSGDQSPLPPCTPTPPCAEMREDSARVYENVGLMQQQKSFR

p-ERK in KYSE-520 cells = experiment: Determination of p-ERK in KYSE-520 cells (HTRF); format: cell-based; conditions: Homo sapiens, KYSE-520, 2 h
Procedure: KYSE-520 cells (Nanjing Cobioer Biosciences CO., Ltd.) in the logarithmic growth phase were inoculated (30,000 cells/well) in 1640 medium containing 10% of FBS, and adhered in a 96-well plate overnight (5% CO2, 37° C.). […] The cell culture was stopped with cell lysate. The level of phosphorylated ERK in KYSE-520 cells was determined by a method based on homogeneous time-resolved fluorescence HTRF (Cisbio, 64ERKPEG). The fluorescence values (Ex337 nm/Em625/665 nm) were read on the compatible HTRF reader (MD SpectraMax).

KYSE-520 cells = experiment: KYSE-520 cell proliferation experiment (CellTiter-Glo, 7 days); format: cell-based; conditions: Homo sapiens
Procedure: The treated cell plate was incubated at 37° C., 5% CO2 for 7 days. CellTiter-Glo (Promega, G7573) was used to determine the number of viable cells in each well of the treated plate. 100 μL of the detection reagent was added to each well, and the plate was incubated at room temperature for 10 minutes. Then, the […] in each well was measured with Envision plate reader (PerkinElmer). […] The IC50 value was further calculated as the compound concentration required for 50% proliferation inhibition in the best-fit curve with […].

Row | SMILES | IC50 [1] | IC50 (p-ERK in KYSE-520 cells) | IC50 (KYSE-520 cells)
1 | N[C@@H]1c2ccccc2CC12CCN(c1ncc(Sc3cccnc3C(F)(F)F)c3nccn13)CC2 [Example 31, (S)-1′-(8-((2-(Trifluoromethyl)pyridin-3-yl)thio)imidazo[1,2-c]pyrimidin-5-yl)-1,3-dihydro spiro[indene-2,4′-piperidin]-1-amine] | 3.4 nM | 6.5 nM | 52 nM
2 | Cc1nc(N2CCC3(CC2)Cc2ccccc2[C@H]3N)n2ccnc2c1-c1cccc(Cl)c1Cl [Example 8, (S)-1′-(8-(2,3-Dichlorophenyl)-7-methylimidazo[1,2-c]pyrimidin-5-yl)-1,3-dihydrospiro[indene-2,4′-piperidin]-1-amine] | 5 nM | 370 nM | 151 nM
3 | N[C@@H]1c2cccnc2CC12CCN(c1ncc(Sc3cccnc3C(F)(F)F)c3nccn13)CC2 [Example 34, (S)-1′-(8-((2-(Trifluoromethyl)pyridin-3-yl)thio)imidazo[1,2-c]pyrimidin-5-yl)-5,7-dihydro spiro[cyclopenta[b]pyridine-6,4′-piperidin]-5-amine] | 2.8 nM | 5.4 nM | 92.5 nM
4 | Nc1nc(N2CCC3(CCC[C@H]3N)CC2)n2ccnc2c1Sc1cccnc1C(F)(F)F [Example 23, (R)-8-(7-Amino-8-((2-(trifluoromethyl)pyridin-3-yl)thio)imidazo[1,2-c]pyrimidin-5-yl)-8-azaspiro[4.5]decan-1-amine] | 2.3 nM | 23.2 nM | 51.6 nM
5 | C[C@@H]1OCC2(CCN(c3nc(N)c(Sc4ccnc(F)c4Cl)c4nccn34)CC2)[C@@H]1N [Example 26, (3S,4S)-8-(7-Amino-8-((3-chloro-2-fluoropyridin-4-yl)thio)imidazo[1,2-c]pyrimidin-5-yl)-3-methyl-2-oxa-8-azaspiro[4.5]decan-4-amine] | 2.7 nM | 11.6 nM | 62 nM
6 | Nc1nc(N2CCC3(CCC[C@H]3N)CC2)n2ccnc2c1-c1cccc(Cl)c1Cl [Example 20, (R)-8-(7-Amino-8-(2,3-dichlorophenyl)imidazo[1,2-c]pyrimidin-5-yl)-8-azaspiro[4.5]decan-1-amine] | 2 nM | 85.9 nM | 178 nM
7 | C[C@@H]1OCC2(CCN(c3nc(N)c(-c4cccc(Cl)c4Cl)c4nccn34)CC2)[C@@H]1N [Example 21, (3S,4S)-8-(7-Amino-8-(2,3-dichlorophenyl)imidazo[1,2-c]pyrimidin-5-yl)-3-methyl-2-oxa-8-azaspiro[4.5]decan-4-amine] | 3.8 nM | 26.6 nM | 111 nM
8 | N[C@@H]1CCCC12CCN(c1ncc(Sc3cccnc3C(F)(F)F)c3nccn13)CC2 [Example 16, (R)-8-(8-((2-(Trifluoromethyl)pyridin-3-yl)thio)imidazo[1,2-c]pyrimidin-5-yl)-8-azaspiro[4.5]decan-1-amine] | 6.8 nM | 166 nM | 548 nM
9 | Nc1nc(N2CCC3(CCC[C@H]3N)CC2)n2ccnc2c1Sc1ccnc(F)c1Cl [Example 22, (R)-8-(7-Amino-8-((3-chloro-2-fluoropyridin-4-yl)thio)imidazo[1,2-c]pyrimidin-5-yl)-8-azaspiro[4.5]decan-1-amine] | 2.1 nM | 24.5 nM | 102 nM
10 | CNc1nccc(Sc2cnc(N3CCC4(CC3)Cc3ncccc3[C@H]4N)n3ccnc23)c1F [Example 37, (S)-1′-(8-((3-Fluoro-2-(methylamino)pyridin-4-yl)thio)imidazo[1,2-c]pyrimidin-5-yl)-5,7-dihydrospiro[cyclopenta[b]pyridine-6,4′-piperidin]-5-amine] | 4 nM | 8.6 nM | 37 nM
